# Data published in patent publication US20240173289A1, “USE OF OXYMETHYL-MODIFIED DERIVATIVE OF QUERCETIN IN PREPARATION OF DRUG FOR INHIBITING TUMOR CELL PROLIFERATION” (ZHEJIANG UNIVERSITY, priority 2021, published 2024).
# Experiments:
# Format in all cases: cell-based
# [1] = system: intestinal cancer cells Caco2; assay: scratch closure test; settings: 24 h
# Description: (§1) Cells with a certain density (6×10^5 cells per mL for AGS, T47D, Caco2, BCPAP, GES, HUVEC; 5×10^5 cells per mL for HepG2, MDA-MB-231, BGC-823, A549, PC3, L02; 3×10^5 cells per mL for 143B, HOS, U2, SGC-7901, Hela, BV-2; and 1.8×10^6 cells per mL for WI-38) were spread on a 6-well plate (1 mL per well), added with a DMEM medium containing 10% fetal calf serum, and cultured overnight to form a monolayer of cells. A horizontal scratch was scratched on the monolayer of cells with a pipette tip of 200 μL, washed with PBS 3 times, added into a DMEM medium containing 10% fetal bovine serum, and then added with corresponding dosages of a quercetin 3,3′-dimethyl ether solution (the dosage of osteosarcoma cells was 143B: 4 mg/L, HOS: 4 mg/L, U2: 10 mg/L; the dosage of breast cancer cells was MDA-MB-231: 2 mg/L, T47D: 3 mg/L; the dosage of gastric cancer cells was SGC7901: 6 mg/L, BGC823: 5 mg/L, AGS: 3 mg/L; the dosage of cervical cancer Hela cells was 2 mg/L; the dosage of lung cancer cell A549 was 3 mg/L; the dosage of intestinal cancer cells Caco2 was 4 mg/L; the dosage of mouse glioma BV2 was 4 mg/L; the dosage of human prostate cancer cells PC3 was 6 mg/L; and the dosage of human thyroid cancer cells BCPAP was 2 mg/L), while DMSO was used as a solvent control, and then incubated for 24 h. A scratch width and a measurement width were determined under a microscope, and a scratch closure ratio was calculated as follows: scratch closure ratio=(scratch width−measurement width)/scratch width×100%. Scratch inhibition ratio=(scratch closure ratio of control group−scratch closure ratio of treatment group)/scratch closure ratio of control group×100%.
# [2] = system: human thyroid cancer cells BCPAP; assay: scratch closure test; settings: 2 mg/L, 24 h
# Description: as §1
# [3] = system: cervical cancer Hela cells; assay: scratch closure test; settings: 2 mg/L, 24 h
# Description: as §1
# [4] = system: gastric cancer cells SGC-7901; assay: scratch closure test; settings: 24 h
# Description: as §1
# [5] = system: breast cancer cells T47D; assay: scratch closure test; settings: 3 mg/L, 24 h
# Description: as §1
# [6] = system: osteosarcoma cells 143B; assay: scratch closure test; settings: Homo sapiens, 4 mg/L, 24 h, versus control group, read-out: inhibition rate of scratch closure
# Description: as §1
# [7] = system: gastric cancer cells BGC-823; assay: scratch closure test; settings: Homo sapiens, BGC823, 5 mg/L, 24 h, versus control group, read-out: inhibition rate of scratch closure
# Description: as §1
# [8] = system: mouse glioma BV2; assay: scratch closure test; settings: 4 mg/L, 24 h
# Description: as §1
# [9] = system: osteosarcoma cells HOS; assay: scratch closure test; settings: 4 mg/L, 24 h, versus control group, read-out: inhibition rate of scratch closure
# Description: as §1
# [10] = system: human prostate cancer cells PC3; assay: scratch closure test; settings: 6 mg/L, 24 h
# Description: as §1
# [11] = system: breast cancer cells MDA-MB-231; assay: scratch closure test; settings: 2 mg/L, 24 h
# Description: as §1
# [12] = system: osteosarcoma cells U2; assay: scratch closure test; settings: 10 mg/L, 24 h
# Description: as §1
# [13] = system: gastric cancer cells AGS; assay: scratch closure test; settings: 3 mg/L, 24 h
# Description: as §1
# [14] = system: lung cancer cell A549; assay: scratch closure test; settings: Homo sapiens, 3 mg/L, 24 h, versus control group, read-out: inhibition rate of scratch closure
# Description: as §1
# [15] = system: human embryonic lung fibroblasts WI-38; assay: in vitro proliferation inhibition on normal cells (CCK-8); settings: 48 h, read-out: half-inhibitory concentration
# Excerpt: (§2) Osteosarcoma cell line 143B, HOS, and U2, liver cancer cell line HepG2, breast cancer cell line MDA-MB-231 and T47D, gastric cancer cell line AGS, BGC-823, and SGC-7901, cervical cancer cells Hela, lung cancer cells A549, intestinal cancer cells Caco2, mouse glioma cells BV-2, human prostate cancer cells PC3, human thyroid cancer cell line BCPAP, human normal liver cell line L02, human normal gastric cell line GES, human umbilical vein epithelial cells HUVEC, and human embryonic lung fibroblasts WI-38 were cultured in a DMEM medium containing 10% fetal bovine serum and 1×HEPES in a humid incubator (37° C., 5% CO2). The cells were passaged with trypsin-EDTA in logarithmic phase. Certain density of cells (AGS, T47D, Caco2, BCPAP, GES, HUVEC 1×10^5 cells per well; HepG2, MDA-MB-231, BGC-823, A549, PC3, L02 8×10^4 cells per well; 143B, HOS, U2, SGC-7901, Hela, BV-2, 5×10^4 cells per well; WI-38, 3×10^5 cells per well) were inoculated in a 96-well plate, and cultured for 24 h before treatment. After replacing a fresh medium, 12.5 mg/L to 400 mg/L, of quercetin 3,3′-dimethyl ether dissolved with DMSO was added into a medium (a final volume ratio was 0.1%, and the DMSO was used as a […]). After incubation for 48 h, a complete medium was replaced with a serum-free medium containing 10% CCK-8 reagent. The absorbance at 450 nm and 620 nm was measured separately after the cells were incubated for 1 h. Each experiment was repeated three times independently.
# [16] = system: human normal liver cell line L02; assay: as above; settings: 48 h, read-out: half-inhibitory concentration
# Excerpt: as §2
# [17] = system: human umbilical vein epithelial cells HUVEC; assay: as above; settings: 48 h, read-out: half-inhibitory concentration
# Excerpt: as §2
# [18] = system: human normal gastric cell line GES; assay: as above; settings: 48 h, read-out: half-inhibitory concentration
# Excerpt: as §2
# [19] = Homo sapiens, versus control group, read-out: inhibition rate of scratch closure
# [20] = versus control group, read-out: inhibition rate of scratch closure
structure (smiles),measurement,setting,value
"COc1cc(-c2oc3cc(O)cc(O)c3c(=O)c2OC)ccc1O [Quercetin 3,3′-dimethyl ether, quercetin 3,3′-dimethyl ether]",Treatment scratch closed %,[1]; 4 mg/L,28.37 ± 10.21 %
same,inhibition at 4 µg/mL,"[1]; Homo sapiens, Caco-2, 4 mg/L, versus control group, read-out: inhibition rate of scratch closure",66.6%
same,Treatment scratch closed %,[2],30.31 ± 5.21 %
same,inhibition at 2 µg/mL,[2]; [19],64.7%
same,Treatment scratch closed %,[3],37.42 ± 1.62 %
same,inhibition at 2 µg/mL,[3]; [19],54%
same,Treatment scratch closed %,[4]; 6 mg/L,25.05 ± 10.1 %
same,inhibition at 6 µg/mL,"[4]; Homo sapiens, SGC7901, 6 mg/L, versus control group, read-out: inhibition rate of scratch closure",72%
same,Treatment scratch closed %,[5],31.83 ± 6.01 %
same,inhibition at 3 µg/mL,[5]; [19],64.1%
same,inhibition at 4 µg/mL,[6],54.3%
same,inhibition at 5 µg/mL,[7],73.7%
same,Treatment scratch closed %,[8]; BV-2,21.17 ± 8.55 %
same,inhibition at 4 µg/mL,"[8]; Mus musculus, BV2, versus control group, read-out: inhibition rate of scratch closure",75.2%
same,inhibition at 4 µg/mL,[9],57.6%
same,Treatment scratch closed %,[10],24.76 ± 5.55 %
same,inhibition at 6 µg/mL,[10]; [19],70.9%
same,Treatment scratch closed %,[11],16.72 ± 3.87 %
same,inhibition at 2 µg/mL,[11]; [19],82%
same,Treatment scratch closed %,[12],27.67 ± 6.81 %
same,inhibition at 10 µg/mL,[12]; [20],70.5%
same,Treatment scratch closed %,[13],31.67 ± 3.39 %
same,inhibition at 3 µg/mL,[13]; [20],60.9%
same,inhibition at 3 µg/mL,[14],69.6%
same,IC50,[15],> 100 µg/mL
same,IC50,[16],> 100 µg/mL
same,IC50,[17],> 100 µg/mL
same,IC50,[18],> 100 µg/mL
